According to patent US7601494B2, “Method of screening candidate compounds for susceptibility to biliary excretion” (The University of North Carolina at Chapel Hill, priority 1999, dated 2009):
“Also recorded” adds a separate entry of the source. Where two headings read alike, the source gives them in different places.

Legend:
[1] = system: short-term cultured hepatocytes; experiment: Cumulative uptake in 3-hr (short-term) cultured hepatocyte monolayers, standard vs Ca2+-free buffer; assay type: in vitro ADME, rat; settings: for cumulative uptake in standard buffer compared to Ca2+-free buffer: 3-hr cultured hepatocytes
Experimental: Hepatocytes were isolated with a two-step perfusion method. Briefly, rats were anesthetized with ketamine and xylazine (60 and 12mg/kg i.p., respectively) prior to portal vein cannulation. The liver was perfused in situ with oxygenated Ca^2+-free Krebs-Henseleit bicarbonate buffer containing collagenase type 1 (0.5 mg/ml) for 10 min. The hepatic capsule was removed with forceps. The hepatocytes were released by shaking the liver gently in 100 ml DMEM.
The released cells were filtered through a sterile nylon mesh (70-μm). The hepatocyte suspensions were centrifuged at 50 xg for 3 min. The cell pellet was resuspended in 25 ml DMEM and an equal volume of 90% isotonic polyvinylpyrrolidone-coated silica colloid centrifugation medium (pH 7.4) sold under the registered trademark PERCOLL® by Pharmacia, Inc. of Piscataway, N.J. The resulting cell suspension was centrifuged at about 70 to about 150 xg for 5 min. The pellet was resuspended in 50 ml DMEM and the cell suspensions were combined into one tube followed by centrifugation at 50 xg for 3 min. Hepatocyte viability was determined by trypan blue exclusion. Only those hepatocyte preparations with viability greater than 90% were utilized for further studies.
Hepatocyte suspensions were prepared with DMEM containing 5% fetal calf serum, 1 μM dexamethasone and 4 mg/L insulin. Hepatocyte suspensions were added to the precoated dishes at a density of about 2-3×10^6 cells/60-mm dish. Approximately 1 hr after plating the cells, the medium was aspirated and 3-ml fresh DMEM was added. For transport studies, hepatocytes that had been seeded for 3-5 hr without collagen overlay were defined as 3-hr or short-term cultured hepatocytes.
(§1) Hepatocytes cultured in a collagen-sandwich configuration were incubated in 3 ml standard buffer or Ca^2+-free buffer at 37° C. for 10 min. After removing the incubation buffer, uptake was initiated by addition of 3 ml standard buffer containing substrate to each dish. After incubation for designated times, cumulative uptake was terminated by aspirating the incubation solution and rinsing 4 times with 3 ml ice-cold standard buffer to remove extracellular substrate. After washing, 2 ml of 1% Triton X-100 solution was added to culture dishes, and the cells were lysed by shaking the dish on a shaker for 20 min at room temperature. An aliquot (1 ml) of lysate was analyzed by liquid scintillation spectrometry. Bio-Rad DC Protein Assay Kit (Bio-Rad Laboratories, Hercules, Calif.) was used to determine the protein concentration in the culture extracts using bovine serum albumin as standard. […] All values for substrate uptake into cell monolayers were corrected for nonspecific binding to the collagen by subtracting the substrate uptake determined in the appropriate control dishes in the absence of cells as described previously.
(§2) Uptake data were normalized to the protein content and expressed as mean±SD from 3-4 separate preparations of hepatocytes. Statistical differences between mean values for the 10-min cumulative substrate uptake in the presence and absence of Ca^2+ were determined by the use of the well-known Student's t-test. A P value of <0.05 was considered significant.

[2] = system: sandwich-cultured hepatocytes; experiment: Cumulative uptake, Biliary Excretion Index and in vitro biliary clearance in 96-hr sandwich-cultured hepatocytes; assay type: in vitro ADME, rat; settings: for cumulative uptake in standard buffer compared to Ca2+-free buffer: 96-hr cultured hepatocytes; for Biliary Excretion Index: Equation 3
Experimental: To prepare sandwich-cultured hepatocytes, neutralized collagen solution (0.1 ml, about 1.5 to about 3.0 mg/ml, pH 7.4) was added to the monolayers 24 hr after the cells were seeded. […] Medium was changed on a daily basis until the fourth day after the cells were seeded. These hepatocytes were referred to as 96-hr or long-term cultured hepatocytes.
as §1, §2
Biliary excretion of substrates in the monolayers was quantitatively assessed by the Biliary Excretion Index based on Equation 3:
[formula] where Uptakestandard and Uptake Ca^2+-free represent the cumulative uptake of substrate over a 10-min interval in the hepatocyte monolayers pre-incubated in standard buffer and in Ca^2+-free buffer, respectively.
Biliary clearance in the sandwich-cultured hepatocytes, ClB(culture) (ml/min/kg per body weight), was calculated according to Equation 4:
[formula] where Timeincubation was 10 min and Concentrationmedium represented the initial substrate concentration in the incubation medium. In some embodiments, a biliary clearance value can be calculated as the ratio of the mass in the bile canaliculi and the area under the curve (AUC) in culture medium, wherein the AUC represents the integral of candidate compound (e.g. xenobiotic concentration) in the medium from time 0 to time T (time can be measure in any desired units, and is usually measured in minutes). Indeed, the term AUC can refer to the following equation: […]

[3] = In vivo biliary excretion and biliary clearance in rats (literature data, Equations 1 and 2); settings: rat
Experimental: In vivo biliary clearance, ClB (ml/min/kg body weight), was calculated according to Equation 1:
[formula] where Amountbile(O-T) represents the amount of parent drug recovered in bile from 0 to time T when most drug was eliminated from the systemic circulation, and AUCO-T represents the area under the plasma concentration-time curve from 0 to time T (in minutes).
The in vivo intrinsic biliary clearance (ClBin, ml/min/kg body weight) was estimated according to Equation 2 based on the well-stirred model of hepatic disposition assuming biliary excretion is the predominant elimination pathway (Pang et al., J. Pharmacokinet. Biopharm. 5:625-653, 1977).
[formula] where Q represents rat hepatic plasma/blood flow, 40-70 ml/min/kg of body weight {(blood flow×(1-hematocrit)}; Pollack et al., J. Pharmacol. Exp. Ther. 18:197-202, (1989), and ClB represents biliary clearance for model compounds reported in the literature or calculated from Equation 1.
The five model substrates representing a diverse spectrum of biliary excretion properties were selected to examine the relationship between the percentage of the dose excreted in bile in vivo in rats and the Biliary Excretion Index in sandwich-cultured hepatocytes. Information regarding the percentage of the dose excreted in rat bile after i.v. administration was obtained from the literature.

[4] = cited from earlier work; for percentage of the dose excreted in rat bile: i.v. administration, in 1 hr, unchanged drug; for in vivo biliary clearance: rat, literature values
Mrp2 = experiment: Immunoblot analysis of Mrp2 expression in siRNA-treated SCRH; assay type: cell-based, rat; settings: 2 μg siRNA per well, 48 hr; for reduction in endogenous Mrp2 expression: vs siFL or non-transfected SCRH, average
Experimental: (§3) HepG2 cells were maintained in Dulbecco's modified Eagle's medium/F-12 plus 10% FBS. Rat hepatocytes were isolated from male Wistar rats (220-300g) by in situ collagenase perfusion (Annaert et al., Drug Metab Dispos 29:1277-1283, 2001). Cells were seeded at a density of 1.5×10^6 cells per well onto polystyrene 6-well plates pre-coated with rat tail type I collagen; a top layer of gelled collagen was overlaid 24 hr after plating. Rat hepatocyte cultures were maintained in Dulbecco's modified Eagle's medium supplemented with 0.1 μM dexamethasone and 0.1% ITS culture supplement (6.25 mg/mL insulin, 6.25 mg/mL transferrin, 6.25 μg/mL selenous acid, 5.35 mg/mL linoleic acid, and […]). Medium was changed every 24 hr.
(§4) HepG2 cells were seeded at a density of 2×10^5 cells per well onto 12-well plates 24 hr before transfection. A mixture of 100 ng firefly luciferase expression plasmid (PGL3-FL) and 100 ng Renilla luciferase expression plasmid (PRL-TK) and various amounts of firefly luciferase siRNA were used per well. Transfections of SCRH were performed at 20 hr after plating, unless specifically indicated. siRNA (2 μg unless specified) was used per well in 6-well plates. siRNA and DNA were formulated for transfection using […]™ transfection reaction kit (QIAGEN Inc. Valencia, Calif. USA). Briefly, siRNA was condensed in Enhancer EC at a ratio of 1:2 (μg of total RNA and/or DNA : μl of Enhancer), and formulated with TransMessenger at a ratio of 1:4 (μg of RNA and /or DNA: μl of TransMessenger) and then incubated with cells. For transfections of HepG2 cells, medium was changed after an overnight incubation with siRNA. For transfections of SCRH, cells were incubated with siRNA for 4 hr and then were overlaid with collagen. siRNA delivery into hepatocytes was more efficient before overlay of the top collagen layer. The effect of transfection was examined 48 hr later.
(§5) Cells were harvested 48 hr post transfection and lysed in 1% SDS, 1 mM EDTA plus COMPLETE™ protease inhibitor cocktail (Roche Diagnostics, Mannheim, Germany). The protein concentration of the clear cell lysate was determined with the BCA Protein Assay Reagent Kit (Pierce Biotech, Inc. Rockford, Ill.). […] of total protein per lane was resolved by electrophoresis on NuPAGE 4-12% Bis-Tris Gel (Invitrogen Life Technology, Carlsbad, Calif. USA) and were transferred onto polyvinylidone difluoride membranes. The following antibodies were used to probe the membranes: anti-Mrp2 (M2111-6, Alexis Biochemicals, San Diego, Calif. USA); anti-Mrp3 (kind gift from Dr. Yuichi Sugiyama); anti-Radixin (Chemicon International, Inc. Temecula, Calif. USA), anti-β-actin (MAB1501, Chemicon).

Mrp3 = experiment: Immunoblot analysis of Mrp3 expression in siRNA-treated SCRH; assay type: cell-based, rat; settings: immunoblot
Experimental: as §3, §4, §5

radixin = experiment: Immunoblot analysis of radixin expression in siRNA-treated SCRH; assay type: cell-based, rat
Experimental: as §3
as §4, with “For transfections of SCRH, cells were incubated with siRNA for 4 hr and then were overlaid with collagen. siRNA delivery into hepatocytes was more efficient before overlay of the top collagen layer. The effect of transfection was examined 48 hr later.” left out
Cells were harvested 48 hr post transfection and lysed in 1% SDS, 1 mM EDTA plus COMPLETE™ protease inhibitor cocktail (Roche Diagnostics, Mannheim, Germany). The protein concentration of the clear cell lysate was determined with the BCA Protein Assay Reagent Kit (Pierce Biotech, Inc. Rockford, Ill.). […]

[5] = 96-hr sandwich-cultured hepatocytes, 10-min cumulative uptake

CC1(C)SSC(C)(C)[C@@H](NC(=O)[C@@H](N)Cc2ccc(O)cc2)C(=O)NCC(=O)N[C@@H](Cc2ccccc2)C(=O)N[C@H]1C(=O)O [[D-pen^2,5]enkephalin]
cumulative uptake in standard buffer compared to Ca2+-free buffer [1]: not significantly different | cumulative uptake in standard buffer compared to Ca2+-free buffer [2]: significantly higher | clearance ([3]; in vivo biliary clearance, calculated by Equation 1 from data of Chen and Pollack): 18.5 mL/min/kg | clearance ([3]; in vivo intrinsic biliary clearance, calculated from Equation 2 (well-stirred model)): ~34.4 mL/min/kg

CN(Cc1cnc2nc(N)nc(N)c2n1)c1ccc(C(=O)N[C@@H](CCC(=O)O)C(=O)O)cc1 [methotrexate]
cumulative uptake in standard buffer compared to Ca2+-free buffer [1]: not significantly different | cumulative uptake in standard buffer compared to Ca2+-free buffer [2]: significantly higher | in vitro biliary clearance ([2]; 96-hr sandwich-cultured hepatocytes, 10-min cumulative uptake, Equation 4): 4.1 ± 1.0 mL/min/kg | clearance ([3]; in vivo intrinsic biliary clearance): ~17.3 mL/min/kg | percentage of the dose excreted in rat bile [4]: 50-60% | percentage of the dose excreted in rat bile ([4]; listed as Methotrexate): approximately 60% | in vivo biliary clearance [4]: 12.1 ml/min per kg body weight

O=C(O)c1ccccc1O [salicylate]
cumulative uptake in standard buffer compared to Ca2+-free buffer [1]: not significantly different | cumulative uptake in standard buffer compared to Ca2+-free buffer [2]: no effect | Biliary Excretion Index [2, 5]: approximately zero; also recorded: negligible | percentage of the dose excreted in rat bile [4]: negligible | in vivo biliary clearance [4]: ~0 ml/min per kg body weight

inulin
cumulative uptake (of initial added substrate) ([1]; short-term cultured hepatocytes, all incubation times, 1 μM): less than 0.01% | Biliary Excretion Index [2, 5]: approximately zero; also recorded: negligible | cumulative uptake (of initial added substrate) ([2]; long-term cultured hepatocytes, all incubation times, 1 μM): less than 0.01% | percentage of the dose excreted in rat bile [4]: negligible

siMrp2AB1: siRNA targeting rat Mrp2, GGCUAUAUCUGUGCAAUCCUA (SEQ ID NO: 3), nucleotides 1158-1178 of Mrp2 cDNA (listed as RNA, chemistry not given here)
maximum reduction in endogenous Mrp2 expression (Mrp2): 79% | reduction in endogenous Mrp2 expression (Mrp2): 50% | expression level of Mrp3 (Mrp3): 89±11 % non-transfected control | radixin expression level (radixin): 95±17 % non-transfected control

siMrp2AB2: siRNA targeting rat Mrp2, GGCUAGGAAGCAGUACACCAU (SEQ ID NO: 4) (listed as RNA, chemistry not given here)
reduction in endogenous Mrp2 expression (Mrp2): 40±20% | expression level of Mrp3 (Mrp3): 96±15 % non-transfected control | radixin expression level (radixin): 100±8 % non-transfected control

siMrp2AB3: siRNA targeting rat Mrp2, GGCAGUAGGGUGGUGGUCCAU (SEQ ID NO: 5) (listed as RNA, chemistry not given here)
reduction in endogenous Mrp2 expression (Mrp2): 26±18% | expression level of Mrp3 (Mrp3): 86±11 % non-transfected control | radixin expression level (radixin): 103±7 % non-transfected control
